Measurements published in patent publication US9242944B2 (UNIVERSITY OF MARYLAND, BALTIMORE, priority 2013, dated 2016).
“Also recorded” adds a separate entry of the source. Where two headings read alike, the source gives them in different places.

Legend:
c-Myc-Max heterodimers = biological target: T1, c-Myc-Max heterodimers (Homo sapiens, UniProt P01106); experiment: Electrophoretic mobility shift assay (EMSA) of c-Myc-Max dimerization and DNA binding
T1 construct: c-Myc bHLH-ZIP domain (residues 353-437); His6-TEV protease substrate tag; made in house; host or cells: bacteria (pET151 vector for Myc)
T1 sequence (P01106 368-452, one chain of several): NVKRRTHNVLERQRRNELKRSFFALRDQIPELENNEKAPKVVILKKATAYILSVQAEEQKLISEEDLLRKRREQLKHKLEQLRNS
Description: The ability of a small-molecule to interfere with c-Myc-Max dimerization is conveniently assessed through the disruption of the c-Myc-Max/DNA ternary complex by an electrophoretic mobility shift assay (EMSA) using fluorescently-labelled DNA, and subsequently quantified by densitometry.(23) Accordingly, a 100-member library was screened for the ability to disrupt the c-Myc-Max dimer.
These were performed essentially as described previously (23). Briefly, Ni^+-agarose-purified His6-tagged c-Myc bHLH-ZIP domain (residues 353-437) was used for all binding assays as was the His6-tagged 151 residue isoform of Max, otherwise referred to as Max(S) (residues 2-151) (21). For each binding reaction, the proteins were allowed to heterodimerize at a concentration of 30 nM each in the presence of 20 nM of a 5′-HEX-tagged double-stranded 22-base pair oligonucleotide 5′-hexachlorofluoresceine-[…]-3′ (SEQ ID NO: 1) containing a consensus c-Myc binding site (CACGTG) and the indicated concentration of small molecule inhibitor. Control reactions contained the same oligonucleotide in the presence of 60 nM of the 160 residue isoform of Max referred to as Max(L) (21). All binding reactions were prepared in a buffer consisting of PBS (pH 7.3), 1 mmol/L EDTA, 0.1% NP40, 5% glycerol, 1 mmol/L DTT, and 0.4 mg/mL bovine serum albumin. Electrophoresis was performed on 8% polyacrylamide/bisacrylamide (80:1) gels in […] (23). Each reaction was run on at least three separate occasions.
EMSAs were performed essentially as described utilizing bacterially-expressed recombinant proteins purified nearly to homogeneity.(23) Experiments with Max homodimers used the His6-tagged 160 amino acid isoform of the protein, termed Max(L), which homodimerizes and binds DNA well. For studies with Myc-Max heterodimers, the His6-tagged 151 residue isoform of Max [Max(S)] was used, which binds DNA well as a heterodimer with Myc but poorly as a homodimer.(23) Recombinant Myc protein, expressed in the pET151 vector, consisted of the His6-TEV protease substrate-tagged 85 amino acid bHLH-ZIP domain. (23) Each protein was purified by Ni-agarose affinity chromatography as previously described. (23) The His6-TEV tag was removed from the Myc protein by TEV protease cleavage followed by re-purification using Ni-agarose affinity chromatography to remove the His6-TEV protease and the cleaved His6-TEV tag as previously described. Binding assays were performed with 30 nM of each protein and 30 nM of a 6-carboxy-2′,4,4′,5′,7,7′-hexachlorofluorescein (HEX)-tagged double-stranded oligonucleotide containing a consensus Myc binding site (IDT, Coralville, Iowa).(23)

Max-Max homodimers = biological target: T2, Max-Max homodimers (Homo sapiens, UniProt P61244); experiment: EMSA of Max-Max homodimerization and DNA binding; details: 50% inhibition of Max-Max dimerization and DNA binding in EMSAs
T2 construct: His6; made in house; host or cells: bacteria
T2 sequence (P61244 whole entry): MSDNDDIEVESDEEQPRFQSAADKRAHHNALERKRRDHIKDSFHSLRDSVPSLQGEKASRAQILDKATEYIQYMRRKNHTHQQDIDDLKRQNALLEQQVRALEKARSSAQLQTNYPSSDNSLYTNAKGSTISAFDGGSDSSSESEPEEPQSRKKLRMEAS

HL60 cells [1] = experiment: Growth inhibition (MTT assay) in HL60 cells; type: cell-based, human; details: 10-point serial dilution, quadruplicate; for IC50: read-out: IC50 HL60
Description: (§1) These were performed using HL60 human promyelocytic leukemia cells or Daudi Burkitt lymphoma cells essentially as described previously (23). Briefly, cells were seeded into 96 well dishes (5000 cells/well and 10,000 cells/well for HL60 and Daudi cells, respectively). Growth medium consisted of RPMI medium supplemented with Penicillin/Streptomycin, glutamine and 10% fetal bovine serum. The indicated concentrations of each compound were then added and 10-point growth inhibition assays were performed 3-5 days later using the MTT assay. Each point was performed in quadruplicate.
(§2) Daudi Burkitt lymphoma and HL60 promyelocytic leukemia cells were maintained in RPMI medium supplemented with 10% fetal bovine serum.(23) For growth inhibition studies, 3×10^3 cells were seeded in 96 well plates in the presence of serial dilutions of each compound. A total of 10 dilutions, ranging from 0.1 to 50 μM were performed for each compound. Standard MTT assays (23) were used to quantify cell number 3-4 days later and compared to wells exposed to DMSO vehicle only.

Daudi cells = experiment: Growth inhibition (MTT assay) in Daudi cells; type: cell-based; details: 10-point serial dilution, quadruplicate; for IC50: read-out: IC50 Daudi
Description: as §1, §2

c-Myc-Max dimerization = biological target: T3, c-Myc-Max dimerization (Homo sapiens, UniProt P01106); experiment: Co-immunoprecipitation (Co-IP) of c-Myc with Max in HL60 cells; type: cell-based
T3 construct: endogenous in cells; host or cells: HL60
T3 sequence (P01106 16-454 limits assumed): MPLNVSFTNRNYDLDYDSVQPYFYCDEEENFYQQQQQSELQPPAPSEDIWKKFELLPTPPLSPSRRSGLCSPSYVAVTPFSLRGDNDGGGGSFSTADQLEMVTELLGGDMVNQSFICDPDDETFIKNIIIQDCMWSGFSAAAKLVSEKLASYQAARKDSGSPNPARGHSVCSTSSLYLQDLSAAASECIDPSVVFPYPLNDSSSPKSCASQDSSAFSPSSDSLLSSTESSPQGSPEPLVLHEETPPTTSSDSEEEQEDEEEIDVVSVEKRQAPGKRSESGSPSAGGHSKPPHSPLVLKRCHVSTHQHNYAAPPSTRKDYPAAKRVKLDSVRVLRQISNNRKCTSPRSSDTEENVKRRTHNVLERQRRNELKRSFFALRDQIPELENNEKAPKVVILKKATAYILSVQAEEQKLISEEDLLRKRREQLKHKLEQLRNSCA
Description: Co-IP assays were performed essentially as described previously.(23) Briefly, 5×10^6 HL60 cells (>90% viable) in log-phase growth were treated in suspension for 4-6 h with the stated concentration of 3jc48-3. As a negative control, samples exposed to DMSO vehicle only were included and processed in parallel. Treated cells were collected by centrifugation, washed twice in ice-cold PBS and lysed in IP Buffer. 300 μg of cleared lysate was then precipitated with a 1:200 dilution of anti-Max antibody(23) followed by subsequent precipitation with protein G-Sepharose using conditions recommended by the supplier (Santa Cruz Biotechnology, Inc. Santa Cruz, Calif.). The precipitate was washed three times in IP buffer, boiled in running buffer and resolved by 10% SDS-PAGE. After electrotransfer of the proteins to a PVDF membrane (Millipore Corp. Billercica, Mass.), the blot was probed with a 1:1000 dilution of anti-Myc monoclonal antibody (9E10, Santa Cruz Biotechnology, Santa Cruz, Calif.). Blots were developed using a Pierce ECL Plus enhanced chemiluminescence kit according to the directions of the supplier (Thermo-Fisher, Pittsburgh, Pa.).

HL60 cells [2] = experiment: Cell cycle analysis (propidium iodide, flow cytometry); type: cell-based; details: 24 h
Description: Sub-confluent cultures of cells at >90% viability were plated into fresh medium at densities that were typically about 10% of those attained at the point of density arrest. The next day, Myc inhibitors at the stated concentrations were added for 24-48 hr. The cells were then harvested, washed twice in PBS and stained with propidium iodide as previously described(23). Cell cycle analyses were performed on a BD FACSCalibur™ flow cytometer (Becton Dickinson, Inc. Franklin Lakes, N.J.) and analyzed using ModFit LT 3.3 (Verity Software House, Topsham, Me.).

[3] = test system: c-Myc-responsive promoter; experiment: Myc reporter gene expression (luciferase) in HeLa cells; type: cell-based; details: markedly diminished within 6 h of compound addition
Excerpt: The generic reporter vector pGL4.28(luc2CP/minP/Hygro) (Promega Corp., Madison Wis.), which is specifically designed to reduce anomalous transcription and which contains a highly de-stabilized luciferase reporter was used to assess the effects of Myc inhibitors. […] A control vector containing this same oligonucleotide with mutant E-box sites ([NT] ID NO: 3) was used as a negative control. […] After automated DNA sequencing to confirm the identity of its respective insert, each vector was then separately co-transfected into HeLa cells together with the vector pFR400, which encodes a mutant form of dihydrofolate reductase that facilitates the step-wise amplification of the plasmid and any co-transfected sequences in the presence of increasing concentrations of the folate antagonist methotrexate (MTX). After first selecting for stably transfected cells by growth in hygromycin, the resistant clones were pooled and grown in serial four-fold increasing concentrations of MTX ranging from […]), thus allowing the luciferase signal originating from the first vector to be easily detected above background. No luciferase signal over background values could be obtained in unamplified cells or in amplified cells transfected with the mutant E-box-containing vector. […]

## COC(=O)c1ccc(Nc2ccc([N+](=O)[O-])c3nonc23)c(-c2ccc(C)cc2)c1 [Compound 3jc48-3, Methyl 4′-methyl-6-((7-nitrobenzo[c][1,2,5]oxadiazol-4-yl)amino)-[1,1′-biphenyl]-3-carboxylate]
c-Myc-Max heterodimers; 50% inhibition of c-Myc-Max dimerization and DNA binding in EMSAs
  IC50: 34.8 µM
c-Myc-Max heterodimers; EMSA
  c-Myc-Max inhibitory potency relative to 10074-G5: approximately five-fold improvement
  selectivity for Myc-Max heterodimers over Max-Max homodimers: about two-fold selective; also recorded: two-fold selectivity
c-Myc-Max heterodimers; Table 10, 100 μM small-molecule, EMSA, read-out: % Inhibition of c-Myc-Max Dimerization
  inhibition at 100 µM: 94%
Max-Max homodimers
  IC50: 60.6 µM
HL60 cells [1]; Homo sapiens, HL-60, MTT assay
  IC50: 3.8 µM
HL60 cells [1]; MTT assay
  IC50 HL60: single-digit micromolar
  IC50: 3.5 ± 0.54 µM
Daudi cells
  IC50 Daudi: single-digit micromolar
  IC50: 1.28 ± 0.73 µM
Daudi cells; Homo sapiens, Daudi
  IC50: 1.3 µM
c-Myc-Max dimerization
  disruption of c-Myc-Max dimerization in cells (co-IP): capable of disrupting c-Myc-Max dimerization within cells
HL60 cells [2]
  cell cycle arrest, cells in G0/G1: blocking progression of the cell cycle beyond the G0/G1 phase; also recorded: dose-dependently increased the percentage of HL60 cells in the G0/G1 stage
[3]
  inhibition of luciferase reporter under c-Myc-responsive vs NF-κB-responsive promoter: selectively inhibits the expression of the luciferase gene under the control of a c-Myc promoter; also recorded: selectively inhibited the c-Myc-driven gene
